The results in this text go back to patent US20260308179A1, “NOVEL CRYSTALLINE FORM OF RISDIPLAM AND PROCESS FOR PREPARATION THEREOF” (HARMAN FINOCHEM LIMITED, priority 2023, published 2026).

A word on the solubility: it is how much of the substance goes into solution per volume.

The nature of data set [1]: Risdiplam solubility data. Type of data set: physicochemical.
Data set [2] in a line: Storage stability of crystalline Form H by IR spectrum. It counts as physicochemical. The method, then: In yet another aspect, the crystalline Form H of Risdiplam is characterized by the IR spectrum at 834 cm^−1, 880 cm^−1, 926 cm^−1, 1210 cm^−1, 1227 cm^−1, 1674 cm^−1, 2824 cm^−1, 3283 cm^−1; as illustrated in FIGS. 2A and 2B. The IR spectrum of Risdiplam Form H was conducted after 6 months of storage.
In yet another embodiment, the crystalline Form H of Risdiplam is characterized by the IR spectrum at 834 cm^−1, 880 cm^−1, 926 cm^−1, 1210 cm^−1, 1227 cm^−1, 1674 cm^−1, 2824 cm^−1, 3283 cm^−1 as illustrated in FIGS. 2A and 2B. The IR spectrum of Risdiplam Form H illustrated in FIG. 2B was conducted after 6 months of storage.

Each structure is given as a SMILES string. In brackets after ≈: the same amount, converted by molar mass. Where two headings read alike, the source gives them in different places.

For the molecule `Cc1cn2nc(-c3cc(=O)n4cc(N5CCNC6(CC6)C5)ccc4n3)cc(C)c2n1` [011/DS-C/V/118/032, 7-(4,7-Diazaspiro[2,5]octan-7-yl)-2-(2,8-dimethylimidazo[1,2-b]pyridazin-6-yl)-pyrido[1,2-a]pyrimidin-4-one], the solubility in data set [1] (ethanol, organic solvent or mixture, solvent: ethanol, read-out: Solubility in ethanol) is 1300 µg/mL (≈ 3240 µM); in data set [1] (water, solvent: water, read-out: Solubility in water), 3 µg/mL (≈ 7.47 µM).

Molecule `Cc1cn2nc(-c3cc(=O)n4cc(N5CCNC6(CC6)C5)ccc4n3)cc(C)c2n1` [STD] gave a Solubility in ethanol in data set [1] (solvent: ethanol) of under 1000 µg/mL. For the same molecule, the Solubility in water in data set [1] (solvent: water) was under 100 µg/mL.

For `Cc1cn2nc(-c3cc(=O)n4cc(N5CCNC6(CC6)C5)ccc4n3)cc(C)c2n1` [crystalline Form H of Risdiplam, 7-(4,7-diazaspiro[2.5]octan-7-yl)-2-(2,8-dimethylimidazo[1,2-b]pyridazin-6-yl)pyrido-4H-[1,2-a]pyrimidin-4-one], in data set [1] (solvent: ethanol, listed as 011/DS-C/IV/118/048), the Solubility in ethanol is 1400 µg/mL (≈ 3490 µM). This molecule also yielded a Solubility in water in data set [1] (solvent: water, listed as 011/DS-C/IV/118/048) of 6 µg/mL (≈ 14.9 µM). Moreover, the “change in the IR spectrum after storage (stability)” value in data set [2] (after 6 months of storage, IR spectrum, FIG. 2A and 2B) is given as “No substantial change in the IR spectrum was observed”. Moreover, the stability period result in data set [2] (illustrated by IR spectrum in FIG. 2) is recorded as “stable up to a period of 6 months”.
